Tests used:
Experiment in all cases: relative viability (nuclei count vs DMSO), 5 days (fraction); higher = more cells survive
[1] = compound: Cn1nnc2c(C(N)=O)ncn2c1=O [Temozolomide] + Cc1cc(Nc2cc(N3CCN(C)CC3)nc(Sc3ccc(NC(=O)C4CC4)cc3)n2)n[nH]1 [Tozasertib] (partner 0.1 µM)
In short: (§1)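 Medians of duplicate plates are given as relative viability. That measure is the nuclei count in treated wells divided by the count in vehicle wells. Counts were taken on 4× images of lung cancer cell lines in 1536-well plates, 5 days after pin-tool dosing the day after seeding with one drug alone or a fixed anchor-drug dose plus five library-drug doses (not always all listed) in √10 steps.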

[2] = compound: Cn1nnc2c(C(N)=O)ncn2c1=O [Temozolomide] + Nc1nc2[nH]cc(CCc3ccc(C(=O)N[C@@H](CCC(=O)O)C(=O)O)cc3)c2c(=O)[nH]1 [Pemetrexed] (partner 0.2 µM)
In short: as §1

Temozolomide + Foretinib = compound: Cn1nnc2c(C(N)=O)ncn2c1=O [Temozolomide] + COc1cc2c(Oc3ccc(NC(=O)C4(C(=O)Nc5ccc(F)cc5)CC4)cc3F)ccnc2cc1OCCCN1CCOCC1 [Foretinib] (partner 0.25 µM)
In short: as §1

AZD5582 + Pemetrexed = compound: C[C@@H](C(=O)N[C@@H](C1CCCCC1)C(=O)N2CCC[C@H]2C(=O)N[C@@H]3[C@@H](CC4=CC=CC=C34)OCC#CC#CCO[C@@H]5CC6=CC=CC=C6[C@@H]5NC(=O)[C@@H]7CCCN7C(=O)[C@H](C8CCCCC8)NC(=O)[C@H](C)NC)NC [AZD5582] + Nc1nc2[nH]cc(CCc3ccc(C(=O)N[C@@H](CCC(=O)O)C(=O)O)cc3)c2c(=O)[nH]1 [Pemetrexed] (partner 0.2 µM)
In short: as §1

| Cell Line | relative viability ([1]; first compound 0.2 µM) | relative viability ([1]; first compound 0.6325 µM) | relative viability ([1]; first compound 2 µM) | relative viability ([1]; first compound 6.325 µM) | relative viability ([1]; first compound 20 µM) | relative viability ([2]; first compound 0.2 µM) | relative viability ([2]; first compound 0.6325 µM) | relative viability ([2]; first compound 2 µM) | relative viability ([2]; first compound 6.325 µM) | relative viability ([2]; first compound 20 µM) | relative viability (Temozolomide + Foretinib; first compound 0.2 µM) | relative viability (Temozolomide + Foretinib; first compound 0.6325 µM) | relative viability (Temozolomide + Foretinib; first compound 2 µM) | relative viability (Temozolomide + Foretinib; first compound 6.325 µM) | relative viability (Temozolomide + Foretinib; first compound 20 µM) | relative viability (AZD5582 + Pemetrexed; first compound 0.001581 µM) | relative viability (AZD5582 + Pemetrexed; first compound 0.005 µM) | relative viability (AZD5582 + Pemetrexed; first compound 0.01581 µM) | relative viability (AZD5582 + Pemetrexed; first compound 0.05 µM) |
| --- | --- | --- | --- | --- | --- | --- | --- | --- | --- | --- | --- | --- | --- | --- | --- | --- | --- | --- | --- |
| NCI-H2023 | 0.427 | 0.361 | 0.344 | 0.359 | 0.403 | 0.232 | 0.249 | 0.249 | 0.221 | 0.228 | 0.825 | 0.749 | 0.847 | 0.68 | 0.848 | 0.198 | 0.216 | 0.26 | 0.183 |
| NCI-H1915 | 0.482 | 0.417 | 0.471 | 0.317 | 0.268 | 0.55 | 0.491 | 0.545 | 0.429 | 0.321 | 1.11 | 1.04 | 1 | 0.733 | 0.429 | 0.437 | 0.428 | 0.506 | 0.497 |
| LK-2 | 0.153 | 0.155 | 0.154 | 0.169 | 0.151 | 0.284 | 0.288 | 0.299 | 0.264 | 0.277 | 1.25 | 1.44 | 1.19 | 0.742 | 0.519 | 0.199 | 0.25 |  | 0.256 |
| NCI-H1755 | 0.579 | 0.549 | 0.58 | 0.594 | 0.528 | 0.433 | 0.43 | 0.388 | 0.39 | 0.612 | 0.979 | 0.93 | 0.908 | 0.873 | 0.722 | 0.399 | 0.375 | 0.387 | 0.414 |
| NCI-H650 | 0.704 | 0.771 | 0.735 | 0.681 | 0.804 | 0.934 | 0.902 | 0.963 | 0.96 | 0.961 | 0.898 | 0.991 | 1.06 | 1 | 1.07 | 0.843 | 0.959 | 0.605 | 0.644 |
| NCI-H441 | 0.691 | 0.775 | 0.785 | 0.62 | 0.611 | 0.28 | 0.309 | 0.272 | 0.257 | 0.236 | 1.12 | 0.937 | 1.15 | 1.02 | 1.07 | 0.253 | 0.314 | 0.292 | 0.253 |
| NCI-H3122 | 0.257 | 0.482 | 0.47 | 0.356 | 0.46 | 0.187 | 0.205 | 0.188 | 0.196 | 0.193 | 0.915 | 0.924 | 1.07 | 1 | 0.946 | 0.165 | 0.152 | 0.197 | 0.116 |
| NCI-H1793 |  | 0.31 | 0.45 | 0.325 | 0.301 |  | 1.19 | 1.03 | 0.718 | 0.792 |  | 0.583 | 0.935 | 0.432 | 0.615 | 0.787 | 1.21 | 0.624 | 1.07 |
| COR-L 105 | 0.342 | 0.386 | 0.453 | 0.378 | 0.371 | 1.12 | 1.07 | 1.02 | 1.06 | 1.06 | 1.17 | 1.29 | 1.18 | 0.51 | 1.11 | 1.09 | 1.11 | 1 | 1.25 |
